From US20250034183A1, “POLYMORPHIC FORMS AND METHODS OF PRODUCING POLYMORPHIC FORMS OF A COMPOUND” (Viking Therapeutics, Inc., priority 2022, published 2025)
Values joined by “and” are separate entries in the source; they are usually repeats but may differ in a detail not shown here. Equal values may be shown once. “Also recorded” adds a separate entry of the source. Where a name gives a salt, the structure may show the parent alone.

Experiments:
Type in all cases: physicochemical
[1] = Kinetic solubility in water at 37° C.
Procedure: (§1) In SGF, concentrations were below 1 μg/mL up until 6 hours. The resulting solid was form A. In water, a concentration of 0.3 mg/mL was achieved within 2 minutes and concentration after 6 hours was about 0.5 mg/mL.
(§2) In SGF, concentrations were below 1 μg/mL up until 6 hours. The resulting solid was non-crystalline by XRPD. In water, a concentration of 2.3 mg/mL was achieved within 2 minutes and concentration after 6 hours was about 3.1 mg/mL.

[2] = Kinetic solubility in simulated gastric fluid (SGF); details: for Concentration in SFG: SGF pH about 1.2, 37° C.; for Resulting solid after kinetic solubility in SGF (XRPD): SGF pH about 1.2; for Concentrations in SGF up until 6 hours: SGF pH about 1.2, all time points up until 6 hours
Procedure: as §1, §2

[3] = Equilibrium aqueous solubility in water at ambient temperature
Procedure: Equilibrium solubility of Compound 1 and 1-A was measured in water at ambient temperature. A known volume of water was placed in a 1-dram glass vial and weight aliquots of Compound 1 or Compound 1-A were added while magnetically stirring at room temperature. If the solid dissolved, another aliquot of […] was added.

[4] = Dynamic vapor sorption (DVS) hygroscopicity; details: for Hygroscopicity / water uptake (DVS): 25° C., 5 to 95% RH
Procedure: DVS analysis was carried out using a TA Instruments Q5000 Dynamic Vapor Sorption analyzer. The instrument was calibrated with standard weights and a sodium bromide standard for humidity. Approximately 10-25 mg of sample was loaded into a metalcoated quartz pan for analysis. The sample was analyzed at 25° C. with a maximum equilibration time of one hour in 10% relative humidity (RH) steps from 5 to 95% RH (adsorption cycle) and from 95 to 5% RH (desorption cycle). The movement from one step to the next occurred either after satisfying the equilibrium criterion of 0.01% weight change or, if the equilibrium criterion was not met, after one hour. The percent weight change values were calculated using Microsoft Excel®.

[5] = Competitive slurry (interconversion) experiments, solid form by XRPD; details: all competitive slurry conditions tested
Procedure: Solutions (˜2 mL) were saturated with Form A of Compound 1. Once saturated, they were centrifuged and the mother liquors were transferred to HPLC vials containing equal amounts (approximately 10 mg each) of Forms A, C, D, and E. The samples were then stirred magnetically at a specified temperature for 3 days. Solids were collected by vacuum filtration.

SMILES	Concentration in water ([1]; 2 min)	Concentration in water ([1]; 5 min)	Concentration in water ([1]; 10 min)	Concentration in water ([1]; 30 min)	Concentration in water ([1]; 60 min)	Concentration in water ([1]; 120 min)	Concentration in water ([1]; 240 min)	Concentration in SFG ([2]; 2 min)	Concentration in SFG ([2]; 5 min)	Concentration in SFG ([2]; 10 min)	Concentration in SFG ([2]; 30 min)	Concentration in SFG ([2]; 60 min)	Concentration in SFG ([2]; 120 min)	Concentration in SFG ([2]; 240 min)	Concentration in SFG ([2]; 360 min)	Concentration at 4 hours [3]	Concentration at 24 hours [3]	Concentration at 48 hours [3]	Concentrations in SGF up until 6 hours [2]	Hygroscopicity / water uptake (DVS) [4]	other results
Cc1cc(OCP(=O)(O)O)cc(C)c1Cc1ccc(O)c(Cc2ccccc2)c1 [Compound 1-A, (2-dimethylamino)ethanol (“deanol”) salt of Compound 1]	2250 µg/mL	2660 µg/mL	2980 µg/mL	3070 µg/mL	3140 µg/mL	2280 µg/mL	2870 µg/mL	0.35 µg/mL	0.17 µg/mL	0.11 µg/mL	0.08 µg/mL	0.05 µg/mL	0.28 µg/mL	0.21 µg/mL	0.07 µg/mL	1450 µg/mL	1430 µg/mL	1420 µg/mL	–	–	Concentration in water ([1]; 360 min (6 hours)): 3070 µg/mL
Cc1cc(OCP(=O)(O)O)cc(C)c1Cc1ccc(O)c(Cc2ccccc2)c1 [Compound 1]	300 µg/mL and 290 µg/mL	330 µg/mL	300 µg/mL	290 µg/mL	400 µg/mL	410 µg/mL	390 µg/mL	0.4 µg/mL	0.18 µg/mL	0.11 µg/mL	0.1 µg/mL	0.07 µg/mL	0.37 µg/mL	0.15 µg/mL	0.1 µg/mL	300 µg/mL	320 µg/mL	320 µg/mL	below 1 μg/mL	–	Resulting solid after kinetic solubility in SGF (XRPD) [2]: form A
Cc1cc(OCP(=O)(O)O)cc(C)c1Cc1ccc(O)c(Cc2ccccc2)c1 [Crystalline Form 1]	–	–	–	–	–	–	–	–	–	–	–	–	–	–	–	–	–	–	below 1 μg/mL	–	Resulting solid after kinetic solubility in water [1]: crystalline Form 3; Concentration in water ([1]; 2 min, listed as Compound 1-A (Form 1)): 2300 µg/mL; Concentration in water ([1]; 360 min (6 hours), listed as Compound 1-A (Form 1)): about 3.1 mg/mL; Resulting solid after kinetic solubility in SGF (XRPD) ([2]; listed as Compound 1-A (Form 1)): non-crystalline
Cc1cc(OCP(=O)(O)O)cc(C)c1Cc1ccc(O)c(Cc2ccccc2)c1 [Crystalline Form 2]	–	–	–	–	–	–	–	–	–	–	–	–	–	–	–	–	–	–	–	–	Hygroscopicity / water uptake (DVS) ([4]; listed as Crystal Form 2): moderately hygroscopic
Cc1cc(OCP(=O)(O)O)cc(C)c1Cc1ccc(O)c(Cc2ccccc2)c1 [Crystalline Form 3]	–	–	–	–	–	–	–	–	–	–	–	–	–	–	–	–	–	–	–	slight water uptake	–
Cc1cc(OCP(=O)(O)O)cc(C)c1Cc1ccc(O)c(Cc2ccccc2)c1 [Crystalline Form A]	–	–	–	–	–	–	–	–	–	–	–	–	–	–	–	–	–	–	–	moderately hygroscopic; also recorded: moderate water uptake	Stability over humidity [4]: stable over a wide range of humidity; Relative stability of crystal forms [5]: most stable form
